Results reported in US20230061456A1, “METHODS AND COMPOSITIONS FOR GENERATING TYPE 1 VESTIBULAR HAIR CELLS” (Decibel Therapeutics, Inc., priority 2020, published 2023).

How the values were obtained:
[1] = test system: SPP1 (a Type I HC marker) positive cells in cultured utricles; experiment: SPP1 induction by vitamin A in cultured embryonic and adult utricles; type: cell-based, mouse; conditions: 0.1 μM
Method: To further explore these differences of the effect of the retinoic acid pathway on embryonic and adult hair cells, we compared the effects of 0.1 μM vitamin A on cultured utricles from embryonic and adult animals.

[2] = test system: hair cells of embryonic utricles from E15.5 CD1 mice; experiment: scRNAseq of cultured embryonic utricles with vitamin A; type: cell-based, mouse; conditions: E15.5 CD1 utricles; 0.1 μM; 4 days in culture
Method: To evaluate the potential for this pathway to modulate type I hair cell fate, we dissected and cultured embryonic utricles from E15.5 CD1 mice in the presence or absence of 0.1 μM vitamin A (retinoic acid precursor). After 4 days in culture the cells were dissociated, and single cells were captured for scRNAseq. Downstream analysis of the scRNAseq data was performed and representative transcripts used to define type I hair cells (Kcna10 and Lpgat1) and type II hair cells (Mgst3 and DIk2) were selected from the data.

For vitamin A, the “number of SPP1-positive cells, embryonic tissue” value [1] was “dramatically increased”, the “expression of transcripts typically associated with type I hair cells (Kcna10, Lpgat1)” value [2] was “increased expression” and the “expression of transcripts typically associated with type II hair cells (Mgst3, Dlk2)” value [2] was “decreased expression”.
